{"source": "patent US20120039905A1", "about": "“The Role of p110 delta Signaling in Morbidity and Lung Pathology Induced by Influenza Virus Infection” (priority 2009, published 2012)", "key": {"[1]": {"tested_on": "H7N7 A/Equine/London/1416/73 influenza virus strain", "design": "species or system mice", "conditions": "mouse, in vivo"}, "[2]": {"tested_on": "influenza virus strain PR8", "assay_type": "cell-based"}}, "note": "Entries after “also recorded” stand apart in the source; their conditions may differ."}
{"compound": "Cc1ccccc1-n1c(Cn2cnc3c(N)ncnc32)nc2cccc(C)c2c1=O", "note": "[IC87114]", "values": [{"measurement": "survival after lethal challenge", "setting": "[1]", "result": "increased survival; also recorded: protects mice lethally challenged"}, {"measurement": "reduction of viral mRNA production compared to untreated cells", "setting": "[2]", "result": "~25", "unit": "fold"}, {"measurement": "influenza virus replication (specific RT-PCR)", "setting": "[2]; 100 μM", "result": "inhibits influenza virus replication"}]}
